We go through 19 compounds from ChEMBL document CHEMBL2203052, “Synthesis and antimycobacterial activity of calpinactam derivatives” (2012).

≈ marks a conversion by molar mass, not a printed value. A value given as a limit tells only on which side of the number the result lay.

The subject of the experiment is Mycolicibacterium smegmatis. The experiment is described as follows: Antimycobacterial activity against Mycobacterium smegmatis by liquid microdilution method. The format is functional. For orientation: Broth dilution looks for growth in wells or tubes with falling amounts of substance.
For orientation: MIC means the smallest concentration in the dilution series that meets the test's criterion for growth inhibition. A higher MIC goes with a need for much substance. `CC[C@H](C)[C@@H](NC(=O)[C@@H](CCC(=O)O)NC(=O)[C@H](Cc1cnc[nH]1)NC(=O)[C@@H](CC(C)C)NC(=O)[C@H](N)Cc1ccccc1)C(=O)N[C@H]1CCCCNC1=O`: the MIC is over 50 µg/mL.
Then `CC[C@H](C)[C@@H](NC(=O)[C@@H](CCC(=O)O)NC(=O)[C@H](Cc1cnc[nH]1)NC(=O)[C@H](CC(C)C)NC(=O)[C@H](N)Cc1ccccc1)C(=O)NC1CCCCCC1`, with over 50 µg/mL; and `CC[C@H](C)[C@@H](NC(=O)[C@@H](CCC(=O)O)NC(=O)[C@H](Cc1cnc[nH]1)NC(=O)[C@H](CC(C)C)NC(=O)[C@@H](C)N)C(=O)N[C@H]1CCCCNC1=O`, with over 50 µg/mL.
To `CC[C@H](C)[C@@H](NC(=O)[C@@H](CCC(=O)O)NC(=O)[C@H](Cc1cnc[nH]1)NC(=O)[C@H](CC(C)C)NC(=O)[C@H](N)Cc1ccccc1)C(=O)O` belongs over 50 µg/mL.
Then `CC[C@H](C)[C@@H](NC(=O)[C@@H](CCC(=O)O)NC(=O)[C@H](C)NC(=O)[C@H](CC(C)C)NC(=O)[C@H](N)Cc1ccccc1)C(=O)N[C@H]1CCCCNC1=O`, with over 50 µg/mL; and `CC[C@H](C)[C@@H](NC(=O)[C@@H](CCC(=O)O)NC(=O)[C@H](Cc1cnc[nH]1)NC(=O)[C@H](CC(C)C)NC(=O)[C@H](N)Cc1ccccc1)C(=O)N[C@H]1CCCNC1=O`, with over 50 µg/mL.
Regarding `CC[C@H](C)[C@@H](NC(=O)[C@@H](CCC(=O)O)NC(=O)[C@H](Cc1cnc[nH]1)NC(=O)[C@H](CC(C)C)NC(=O)[C@H](N)Cc1ccccc1)C(=O)N[C@@H](CCCCN)C(=O)O`, the MIC was over 50 µg/mL.
To `CC[C@H](C)[C@@H](NC(=O)[C@@H](CCC(=O)O)NC(=O)[C@H](Cc1cnc[nH]1)NC(=O)[C@H](C)NC(=O)[C@H](N)Cc1ccccc1)C(=O)N[C@H]1CCCCNC1=O` belongs over 50 µg/mL; to `CC[C@H](C)[C@@H](NC(=O)[C@H](CCC(=O)O)NC(=O)[C@H](Cc1cnc[nH]1)NC(=O)[C@H](CC(C)C)NC(=O)[C@H](N)Cc1ccccc1)C(=O)N[C@H]1CCCCNC1=O`, over 50 µg/mL.
Then `CC[C@H](C)[C@@H](NC(=O)[C@@H](C)NC(=O)[C@H](Cc1cnc[nH]1)NC(=O)[C@H](CC(C)C)NC(=O)[C@H](N)Cc1ccccc1)C(=O)N[C@H]1CCCCNC1=O`, with 6.25 µg/mL (≈ 8.8 µM); and `CC[C@H](C)[C@@H](NC(=O)[C@@H](CCC(=O)O)NC(=O)[C@H](Cc1cnc[nH]1)NC(=O)[C@H](CC(C)C)NC(=O)[C@@H](Cc1ccccc1)NC(C)=O)C(=O)N[C@H]1CCCCNC1=O`, with over 50 µg/mL; and `CC[C@H](C)[C@@H](NC(=O)[C@@H](CCC(=O)O)NC(=O)[C@H](Cc1cnc[nH]1)NC(=O)[C@H](CC(C)C)NC(=O)[C@H](N)Cc1ccccc1)C(=O)N[C@H]1CCCCNC1=O` [CALPINACTAM], with 0.78 µg/mL (≈ 1.02 µM).
Then `CC(C)C[C@H](NC(=O)[C@H](N)Cc1ccccc1)C(=O)N[C@@H](Cc1cnc[nH]1)C(=O)N[C@H](CCC(=O)O)C(=O)N[C@H](C)C(=O)N[C@H]1CCCCNC1=O`, with over 50 µg/mL; and `CC[C@H](C)[C@@H](NC(=O)[C@@H](CCC(=O)O)NC(=O)[C@H](Cc1cnc[nH]1)NC(=O)[C@H](CC(C)C)NC(=O)[C@@H](N)Cc1ccccc1)C(=O)N[C@H]1CCCCNC1=O`, with over 50 µg/mL.
The compound `CC[C@H](C)[C@@H](NC(=O)[C@@H](CCC(=O)O)NC(=O)[C@H](Cc1cnc[nH]1)NC(=O)[C@H](CC(C)C)NC(=O)[C@H](N)Cc1ccccc1)C(=O)N[C@@H](C)C(=O)O` registered a minimal inhibitory concentration (MIC) of over 50 µg/mL.
Then `CC[C@H](C)[C@@H](NC(=O)[C@@H](CCC(=O)O)NC(=O)[C@H](Cc1cnc[nH]1)NC(=O)[C@@H](N)CC(C)C)C(=O)N[C@H]1CCCCNC1=O`, with over 50 µg/mL; and `CC[C@H](C)[C@@H](NC(=O)[C@@H](CCC(=O)O)NC(=O)[C@@H](Cc1cnc[nH]1)NC(=O)[C@H](CC(C)C)NC(=O)[C@H](N)Cc1ccccc1)C(=O)N[C@H]1CCCCNC1=O`, with over 50 µg/mL; and `CC[C@H](C)[C@H](NC(=O)[C@@H](CCC(=O)O)NC(=O)[C@H](Cc1cnc[nH]1)NC(=O)[C@H](CC(C)C)NC(=O)[C@H](N)Cc1ccccc1)C(=O)N[C@H]1CCCCNC1=O`, with over 50 µg/mL.
To `CC[C@H](C)[C@@H](NC(=O)[C@@H](CCC(=O)O)NC(=O)[C@H](Cc1cnc[nH]1)NC(=O)[C@H](CC(C)C)NC(=O)[C@H](N)Cc1ccccc1)C(=O)N[C@@H]1CCCCNC1=O` belongs over 50 µg/mL.
